# Results: PubChem BioAssay (NCI)
#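 Interpolation was linear, between the two tested concentrations surrounding the appropriate level; five concentrations were tested over 48 hours in 96-well plates. At the TGI there is no net growth.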
# Key:
# Assay in all cases: NCI-60 cell line screen, 48 h
# [1] = system: A498 renal
# [2] = system: A549 NSCLC
# [3] = system: CAKI-1 renal
# [4] = system: HCT-116 colon
# [5] = system: HS 578T breast
# [6] = system: IGROV1 ovarian
# [7] = system: MDA-N
# [8] = system: NCI-H23 lung
# [9] = system: NCI-H460 lung
# [10] = system: OVCAR-5 ovarian
# [11] = system: OVCAR-8 ovarian
# [12] = system: RPMI-8226 leukemia
# [13] = system: SF-295 CNS
# [14] = system: SK-MEL-28 melanoma
# [15] = system: SNB-19 CNS
# [16] = system: SR leukemia
# [17] = system: UO-31 renal
# [18] = system: SF-539 CNS
# [19] = system: HL-60(TB) leukemia
SMILES,TGI [1] [µM],TGI [2] [µM],TGI [3] [µM],TGI [4] [µM],TGI [5] [µM],TGI [6] [µM],TGI [7] [µM],TGI [8] [µM],TGI [9] [µM],TGI [10] [µM],TGI [11] [µM],TGI [12] [µM],TGI [13] [µM],TGI [14] [µM],TGI [15] [µM],TGI [16] [µM],TGI [17] [µM],TGI [18] [µM],TGI [19] [µM]
O=c1c2c3c(sc2nc2n1N=CN(c1ccc(Cl)cc1)C2)CCCC3,> 100,> 100,> 100,> 100,36.9,> 100,> 100,> 100,> 100,> 100,> 100,> 100,> 100,> 100,> 100,51.1,> 100,,
C(/C=N/NC1=NCCCN1)=N\NC1=NCCCN1,,> 100,> 100,> 100,> 100,> 100,> 100,> 100,> 100,> 100,> 100,,,> 100,> 100,> 100,> 100,> 100,
Cc1ncc([N+](=O)[O-])n1CCNC(=O)CCn1ccnc1[N+](=O)[O-],,> 100,> 100,> 100,> 100,> 100,> 100,> 100,> 100,> 100,> 100,> 100,> 100,> 100,> 100,> 100,> 100,> 100,> 100
Cc1nc2ccc(N=NN(C)C)cc2[nH]1,> 100,> 100,> 100,> 100,> 100,> 100,> 100,,> 100,> 100,> 100,> 100,> 100,> 100,> 100,> 100,> 100,,
C=CC(c1ccccc1)C1(O)c2cccc(O)c2C(=O)c2c(O)cccc21 (stereo unspecified),34.6,32.9,42.5,24.7,34.8,32.6,20.7,30.8,36.7,54.2,43,54.8,40.4,41.4,,24.2,41.6,84.5,
COc1ccc(-n2cnc3c(NC(C)(C)C(=O)O)ncnc32)cc1,> 100,> 100,> 100,> 100,> 100,> 100,> 100,> 100,> 100,> 100,> 100,> 100,> 100,> 100,> 100,> 100,> 100,,
COc1ccccc1N1C(=O)/C(=C\c2cc(OC)c(OC)c(OC)c2)S(=O)(=O)C1c1ccccc1 (stereo unspecified),> 100,> 100,> 100,> 100,> 100,,48.3,> 100,> 100,,> 100,57.1,> 100,> 100,> 100,> 100,> 100,68,
Cc1ccc(S(=O)(=O)n2cnc(CC(NC(=O)C3CCC(=O)N3C(=O)OCc3ccccc3)C(=O)N3CCCC3C(=O)NN)c2)cc1 (stereo unspecified),> 100,> 100,,> 100,> 100,> 100,> 100,> 100,> 100,> 100,> 100,> 100,,> 100,> 100,> 100,> 100,,> 100
C=C1CC(COc2ccc3ccc(=O)oc3c2)(c2ccccc2)OC1=O (stereo unspecified),,27.8,2.52,2,> 23.7,3.36,3.85,3.5,28,13,7.9,0.434,20.7,6.12,28.5,> 31,9.76,,0.708
O=C1c2cccnc2C(=O)c2c1nc1ccccc1c2-c1cncc(-c2c3c(nc4ccccc24)C(=O)c2cccnc2C3=O)c1,5.39,2.6,1.64,0.352,2.27,0.286,0.778,0.944,0.516,5.9,0.618,0.808,1.62,1.57,1.57,0.0608,0.946,,0.478
CC1=CCC[C@]2(C)C1=CC(=O)O[C@H]2c1ccoc1,> 100,> 100,> 100,> 100,> 100,> 100,> 100,> 100,> 100,> 100,> 100,> 100,> 100,> 100,> 100,> 100,> 100,,> 100
CCn1c(=O)c2c3ccc(O)cc3oc2c2ccc(O)cc21,84.5,> 100,> 100,74,70.4,> 100,> 100,> 100,> 100,,> 100,,> 100,> 100,> 100,> 100,78.3,> 100,
Nc1c(Cl)c([N+](=O)[O-])cc2c1OCCCCO2,,> 100,> 100,> 100,> 100,> 100,> 100,> 100,> 100,> 100,> 100,> 100,> 100,> 100,,> 100,> 100,> 100,> 100
O=C1CCSc2c(cnc3ccccc23)N1,> 100,> 100,> 100,> 100,> 100,> 100,> 100,> 100,> 100,> 100,> 100,> 100,> 100,> 100,,> 100,> 100,> 100,> 100
C=CC1(c2ccc(Br)cc2)OCCCO1,,> 100,,> 100,> 100,> 100,> 100,> 100,> 100,> 100,> 100,> 100,> 100,> 100,> 100,> 100,> 100,> 100,> 100
O=C1NC(Cc2c[nH]c3ccccc23)C(=O)N2C(c3ccccc3)c3[nH]c4ccccc4c3C[C@@H]12 (stereo partly specified),> 100,> 100,55.9,30.6,40.6,50.1,38.9,57.1,,45.2,82.7,50.8,33.1,> 100,> 100,37.7,67.3,,50.8
Cc1ccnc2c1ccc1nc3ccccc3n12,> 100,> 100,> 100,> 100,> 100,> 100,> 100,> 100,> 100,> 100,92.4,> 100,> 100,,,> 100,> 100,> 100,> 100
CC(C)=CCC[C@@H](C)C1=C(Nc2ccccc2)C(O)=C(C)C(=O)C1=O,> 30.4,13.5,11.8,16.9,9.5,17.6,54.2,12.9,> 40,> 43.5,23.5,> 100,11.1,30.9,22.8,6.08,15.5,,1.35
O=c1[nH]c(=O)n(C2CC(O)C(CO)O2)c2nc3ccc4ccccc4c3nc12 (stereo unspecified),> 100,> 100,> 100,> 100,> 100,> 100,> 100,> 100,> 100,> 100,> 100,76,> 100,> 100,> 100,> 100,> 100,> 100,
N#CC(C#N)=C1CCCCc2ccc([N+](=O)[O-])cc21,> 100,> 100,> 100,54.8,> 100,> 100,> 100,> 100,> 100,> 100,> 100,87.5,> 100,> 100,> 100,,> 100,> 100,> 100
Cc1ccnc2nc3[nH]c4ccccc4c3cc12,> 100,> 100,> 100,> 100,> 100,> 100,> 100,> 100,> 100,> 100,> 100,> 100,> 100,,,> 100,> 100,> 100,
CN1CCC/C1=C1\C(=O)c2cccn2C1=O,> 100,> 100,> 100,> 100,> 100,> 100,> 100,> 100,> 100,> 100,> 100,> 100,> 100,> 100,> 100,> 100,> 100,,> 100
COc1ccc(N2C(=O)/C(=C\c3cc(OC)c(OC)c(OC)c3)S(=O)(=O)C2c2ccccc2)cc1 (stereo unspecified),> 100,> 100,> 100,> 100,> 100,,40.8,> 100,> 100,,> 100,> 100,> 100,> 100,> 100,> 100,> 100,> 100,
CN1CCN(C(=S)N(C)C(=O)c2cccs2)CC1,,> 100,,,> 100,> 100,> 100,> 100,> 100,> 100,> 100,> 100,> 100,,> 100,> 100,> 100,,
CC(C)(C)C(=O)Nc1cccc(-c2ccc[nH]2)n1,> 100,> 100,> 100,> 100,87.5,> 100,> 100,> 100,> 100,> 100,> 100,25.5,> 100,> 100,> 100,> 100,> 100,> 100,
COc1ccc(C(=O)N2CCN(c3ccc4[nH]c(=O)oc4c3)CC2)cc1,,> 100,,> 100,> 100,> 100,> 100,> 100,> 100,> 100,> 100,> 100,> 100,> 100,> 100,> 100,> 100,> 100,> 100
C[C@@H]1OC2(O)[C@@H]3CCCN3C(=O)N(Cc3ccccc3)N2C1=O (stereo partly specified),> 100,> 100,> 100,> 100,> 100,> 100,> 100,> 100,> 100,> 100,> 100,,> 100,> 100,> 100,> 100,,> 100,> 100
